Converted amounts (≈) assume the structure as drawn.
Key:
KB cells = assay: KB cell culture assay; format: cell-based; details: ED₅₀ of less than 4.0 indicates activity; for EC50: Homo sapiens, read-out: ED⁵⁰ (µg/ml) cell culture
Protocol: Taxol (1), the Meerwein product (4), the acetyl chloride product (7), and A-nor-taxol (10) were tested in KB cell culture assays. […]

tubulin = tubulin depolymerization assay; format: biochemical; details: for IC50: in vitro, read-out: ID₅₀(µM) in tubulin depolymerization assay
From the text: Taxol (1), the Meerwein product (4), the acetyl chloride product (7), and A-Nor-Taxol (10) were also subjected to tubulin depolymerization assays with the results presented in Table XVI below.

Compound	ED⁵⁰ (µg/ml) cell culture (KB cells) [µg/mL]	EC50 (KB cells) [µg/mL]	IC50 (tubulin) [µM]	activity in the tubulin depolymerization assay compared with taxol (tubulin; result in words)
acetylated A-Nor-D-seco-taxol [Acetyl Chloride product (7)]	2.5			
CC(=O)O[C@H]1C(=O)[C@@]2(C)[C@H]([C@H](OC(=O)c3ccccc3)[C@]3(O)C[C@H](OC(=O)[C@H](O)[C@@H](NC(=O)c4ccccc4)c4ccccc4)C(C)=C1C3(C)C)[C@]1(OC(C)=O)CO[C@@H]1C[C@@H]2O [Taxol (1), taxol]		1e-05 (≈ 1.17e-05 µM)	0.3	
C=C(C)C12CC(OC(=O)C(O)C(NC(=O)c3ccccc3)c3ccccc3)C(C)=C1C(OC(C)=O)C(=O)C1(C)C(O)CC3OCC3(OC(C)=O)C1C2OC(=O)c1ccccc1 (stereo not drawn) [A-Nortaxol (10), A-Nortaxol]		2 (≈ 2.39 µM)	0.9	very similar to taxol

— patent EP0505047B1, “Rearranged taxol compounds and method of using in testing of in vivo activity” (VIRGINIA TECH INTELLECTUAL PROPERTIES, INC., priority 1991, dated 1992)
